Molecules are shown by their SMILES. Values after ≈ are worked out from the molar mass of the structure shown. Active and inactive are the calls of the source. The calls are words filed in the database; no cut-off is given here.

The subject of one assay is Staphylococcus aureus. As to the kind of experiment: Antibacterial activity against Staphylococcus aureus after 16 to 18 hr by serial dilution method. Format: functional.
The test system of another assay is Escherichia coli. In words: Antibacterial activity against Escherichia coli after 16 to 18 hr by serial dilution method. Type of assay: functional.
In assay [1] the test system is HeLa. As to the kind of experiment: Cytotoxicity against Homo sapiens (human) HeLa cells after 48 hr by MTT assay. Type of assay: functional, cell-based. (In general: Tetrazolium dyes change colour on reduction, which living cells bring about.)
Assay [2] has as its system HeLa. As to the kind of experiment: Cytotoxicity against Homo sapiens (human) HeLa cells assessed as cell death at 100 uM after 48 hr by MTT assay. Format: functional.
The subject of assay [3] is HeLa. As to the kind of experiment: Cytotoxicity against Homo sapiens (human) HeLa cells assessed as cell death at 50 uM after 48 hr by MTT assay. Format: functional.
In assay [4] the test system is HeLa. As to the kind of experiment: Cytotoxicity against Homo sapiens (human) HeLa cells assessed as cell death at 25 uM after 48 hr by MTT assay. Format: functional.
Assay [5] deals with HeLa. As to the kind of experiment: Cytotoxicity against Homo sapiens (human) HeLa cells assessed as cell death at 12.5 uM after 48 hr by MTT assay. Format: functional.
In the next assay the test system is Candida albicans. In words: Antifungal activity against Candida albicans after 16 to 18 hr by serial dilution method. Type of assay: functional.
For a further assay, the system named is Bacillus cereus. As to the kind of experiment: Antibacterial activity against Bacillus cereus after 16 to 18 hr by serial dilution method. Format: functional.
The test system of the next assay is Pseudomonas aeruginosa. As to the kind of experiment: Antibacterial activity against Pseudomonas aeruginosa after 16 to 18 hr by serial dilution method. Format: functional.
For assay [6], the system named is HeLa. In words: Cytotoxicity against Homo sapiens (human) HeLa cells assessed as cell death at 2.5 uM after 48 hr by MTT assay. Type of assay: functional.

As for `CS(=O)(=O)c1ccc(Cc2n[nH]c(=S)n2/N=C/c2ccc(Cl)cc2)cc1`, the MIC – broadly, the least concentration at which growth counts as inhibited – came out at 6.25 µg/mL (≈ 15.4 µM) against Staphylococcus aureus; 12.5 µg/mL (≈ 30.7 µM) in the assay with Escherichia coli; 1.56 µg/mL (≈ 3.84 µM) in the assay with Candida albicans; 6.25 µg/mL (≈ 15.4 µM) against Bacillus cereus; 6.25 µg/mL (≈ 15.4 µM) in the assay on Pseudomonas aeruginosa. Besides, in the assay on HeLa [1], the EC50 – broadly, the concentration needed to bring the measured effect to its halfway point – stood at 50 µM. Further, the Activity in the assay with HeLa [2] is on record as 57.04%; with HeLa [3], 53.99%; in the assay with HeLa [4], 47.51%; with HeLa [5], 44.73%.
Take `CS(=O)(=O)c1ccc(Cc2n[nH]c(=S)n2/N=C/c2ccccc2Cl)cc1`: the MIC is 12.5 µg/mL (≈ 30.7 µM) in the assay on Staphylococcus aureus; 6.25 µg/mL (≈ 15.4 µM) in the assay on Escherichia coli; 3.12 µg/mL (≈ 7.68 µM) in the assay on Candida albicans; 6.25 µg/mL (≈ 15.4 µM) against Bacillus cereus; 3.12 µg/mL (≈ 7.68 µM) in the assay on Pseudomonas aeruginosa. Further, the Activity worked out at 76.53% with HeLa [2], 42.65% in the assay on HeLa [3], 36.26% with HeLa [4] and 34.65% in the assay on HeLa [5].
With `CSc1ccc(/C=N/n2c(Cc3ccc(S(C)(=O)=O)cc3)n[nH]c2=S)cc1`, the minimal inhibitory concentration (MIC) in the assay with Staphylococcus aureus, against Escherichia coli, in the assay with Candida albicans, with Bacillus cereus and in the assay on Pseudomonas aeruginosa was 3.12 µg/mL (≈ 7.47 µM) each time. Moreover, in the assay with HeLa [1], a half-maximal response (EC50) required 50 µM. The Activity with HeLa [2] worked out at 71.86%; with HeLa [3], 57.5%; with HeLa [4], 32.66%; with HeLa [5] it was 27.94%.
`COc1ccc2cc(/C=N/n3c(Cc4ccc(S(C)(=O)=O)cc4)n[nH]c3=S)ccc2c1`: the MIC with Staphylococcus aureus, in the assay on Escherichia coli, in the assay on Candida albicans, with Bacillus cereus and in the assay with Pseudomonas aeruginosa was 6.25 µg/mL (≈ 13.8 µM) each time. Moreover, the EC50 in the assay with HeLa [1] worked out at 50 µM. Moreover, the Activity in the assay with HeLa [2] came out at 64.6%; in the assay on HeLa [3], 54.13%; with HeLa [4] it was 42.01%; with HeLa [5], 43.71%.
As for `CS(=O)(=O)c1ccc(Cc2n[nH]c(=S)n2/N=C/c2cccs2)cc1`, the MIC against Staphylococcus aureus is 12.5 µg/mL (≈ 33 µM); against Escherichia coli it was 3.12 µg/mL (≈ 8.26 µM); against Candida albicans, 3.12 µg/mL (≈ 8.26 µM); against Bacillus cereus it was 12.5 µg/mL (≈ 33 µM); in the assay with Pseudomonas aeruginosa, 6.25 µg/mL (≈ 16.5 µM). This compound gave an EC50 in the assay on HeLa [1] of 100 µM. The Activity amounted to 61.09% in the assay on HeLa [2], 48.59% in the assay on HeLa [3], 33.33% in the assay with HeLa [4] and 28.69% in the assay with HeLa [5].
With `CS(=O)(=O)c1ccc(Cc2n[nH]c(=S)n2/N=C/c2ccc(-c3ccccc3)cc2)cc1`, the MIC came to 6.25 µg/mL (≈ 13.9 µM) against Staphylococcus aureus; 3.12 µg/mL (≈ 6.97 µM) against Escherichia coli; 6.25 µg/mL (≈ 13.9 µM) in the assay with Candida albicans; 6.25 µg/mL (≈ 13.9 µM) with Bacillus cereus; 6.25 µg/mL (≈ 13.9 µM) with Pseudomonas aeruginosa. Besides, the EC50 in the assay with HeLa [1] stood at 50 µM. In addition, the Activity with HeLa [2] came out at 69.54%; in the assay on HeLa [3], 61.56%; in the assay with HeLa [4], 37.32%; with HeLa [5] it was 30.44%.
For `COc1cccc2c1C(=O)c1c(O)c3c(c(O)c1C2=O)C[C@@](O)(C(=O)CO)C[C@@H]3O[C@H]1C[C@H](N)[C@H](O)[C@H](C)O1` [DOXORUBICIN], the response in the assay on HeLa [1] was half-maximal at 2.5 µM (EC50). In addition, the Activity in the assay with HeLa [6] came out at 78.2%.
As for `CS(=O)(=O)c1ccc(Cc2n[nH]c(=S)n2/N=C/c2ccc(F)cc2)cc1`, the MIC against Staphylococcus aureus worked out at 12.5 µg/mL (≈ 32 µM); with Escherichia coli, 6.25 µg/mL (≈ 16 µM); against Candida albicans, 3.12 µg/mL (≈ 8 µM); in the assay with Bacillus cereus, 6.25 µg/mL (≈ 16 µM); against Pseudomonas aeruginosa it was 6.25 µg/mL (≈ 16 µM). In the assay with HeLa [1], this compound came in with a half-maximal effective concentration (EC50) of 100 µM. Moreover, the Activity with HeLa [2] came to 57.79%; with HeLa [3], 26.25%; with HeLa [5], 2.8%. Further, the result in the assay with HeLa [4] was inactive.
As to `CS(=O)(=O)c1ccc(Cc2n[nH]c(=S)n2/N=C/c2cccnc2)cc1`, the MIC is 6.25 µg/mL (≈ 16.7 µM) in the assay with Staphylococcus aureus; 6.25 µg/mL (≈ 16.7 µM) against Escherichia coli; 6.25 µg/mL (≈ 16.7 µM) against Candida albicans; 12.5 µg/mL (≈ 33.5 µM) with Bacillus cereus; 6.25 µg/mL (≈ 16.7 µM) with Pseudomonas aeruginosa. This compound gave an EC50 with HeLa [1] of more than 100 µM. Further, the Activity is reported as 45.1% with HeLa [2], 14% in the assay on HeLa [3], 19.36% in the assay with HeLa [4] and 16.89% in the assay with HeLa [5].
Regarding `OC(Cn1cncn1)(Cn1cncn1)c1ccc(F)cc1F` [FLUCONAZOLE], the MIC against Candida albicans is 0.78 µg/mL (≈ 2.55 µM).
Consider `CC1(C)S[C@@H]2[C@H](NC(=O)Cc3ccccc3)C(=O)N2[C@H]1C(=O)O` [PENICILLIN G], for which the MIC against Staphylococcus aureus, with Escherichia coli, in the assay on Bacillus cereus and against Pseudomonas aeruginosa was 0.097 µg/mL (≈ 0.29 µM) each time.
As to `CS(=O)(=O)c1ccc(Cc2n[nH]c(=S)n2/N=C/c2ccccc2F)cc1`, the MIC against Staphylococcus aureus is 6.25 µg/mL (≈ 16 µM); in the assay with Escherichia coli it was 3.12 µg/mL (≈ 8 µM); in the assay on Candida albicans it was 3.12 µg/mL (≈ 8 µM); against Bacillus cereus, 3.12 µg/mL (≈ 8 µM); in the assay with Pseudomonas aeruginosa, 6.25 µg/mL (≈ 16 µM). The 50% effective concentration (EC50) with HeLa [1] is more than 100 µM. The Activity in the assay on HeLa [2] is listed as 28.08%; in the assay with HeLa [3], 21.9%; in the assay with HeLa [4] it was 14.03%; with HeLa [5], 16.48%.
On to `CS(=O)(=O)c1ccc(Cc2n[nH]c(=S)n2/N=C/c2c(F)cccc2Cl)cc1`, for which the MIC against Staphylococcus aureus turned out to be 6.25 µg/mL (≈ 14.7 µM); against Escherichia coli it was 6.25 µg/mL (≈ 14.7 µM); with Candida albicans it was 3.12 µg/mL (≈ 7.35 µM); in the assay with Bacillus cereus, 3.12 µg/mL (≈ 7.35 µM); in the assay with Pseudomonas aeruginosa, 3.12 µg/mL (≈ 7.35 µM). The same compound yielded an EC50 in the assay with HeLa [1] of 25 µM. The Activity in the assay with HeLa [2] amounted to 77.28%; in the assay on HeLa [3] it was 70.55%; in the assay on HeLa [4] it was 55.32%; with HeLa [5] it was 49.84%.

Values taken from ChEMBL document CHEMBL3045095, “Synthesis and biological evaluation of some Schiff bases of 4-amino-5-(4-methylsulfonyl)benzyl-2,4-dihydro-3H-[1,2,4]-triazole-3-thione” (Med Chem Res, 2013).
